US20190322676A1, “CERAMIDE GALACTOSYLTRANSFERASE INHIBITORS FOR THE TREATMENT OF DISEASE” (BioMarin Pharmaceutical Inc., priority 2016, published 2019)
Structures can show the parent of a compound that is named as a salt.

target: T1, human CGT (ceramide galactosyltransferase), CHO/CGT lysate (Homo sapiens, UniProt Q16880); assay: CGT enzyme assay, RapidFire/MS/MS readout (Table 1 ranges with one asterisk *); assay type: biochemical; details: RapidFire method (range with one asterisk *)
T1 construct: Full-length human CGT cDNA was cloned into the BamH1/Xho1 site of pcDNA3.1 (+); expressed in transfected cells; host or cells: Chinese hamster ovary (CHO) cells; lysate prepared with M-PER
T1 sequence (Q16880 21-541): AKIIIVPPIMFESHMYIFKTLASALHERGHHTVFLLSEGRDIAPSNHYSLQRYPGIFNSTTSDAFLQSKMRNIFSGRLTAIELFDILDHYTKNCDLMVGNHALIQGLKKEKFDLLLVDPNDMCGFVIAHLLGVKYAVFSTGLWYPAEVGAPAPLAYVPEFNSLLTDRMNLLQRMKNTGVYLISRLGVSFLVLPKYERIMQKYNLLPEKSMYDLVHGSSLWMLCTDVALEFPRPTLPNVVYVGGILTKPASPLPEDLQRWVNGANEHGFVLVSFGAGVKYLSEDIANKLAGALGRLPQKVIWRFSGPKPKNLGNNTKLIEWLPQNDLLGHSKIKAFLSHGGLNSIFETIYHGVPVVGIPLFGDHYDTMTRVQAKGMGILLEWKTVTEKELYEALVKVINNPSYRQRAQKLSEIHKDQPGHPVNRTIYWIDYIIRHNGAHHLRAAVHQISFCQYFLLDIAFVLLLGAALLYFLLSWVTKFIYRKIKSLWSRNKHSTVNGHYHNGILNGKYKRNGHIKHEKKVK
Description: Full-length human CGT cDNA was cloned into the BamH1/Xho1 site of pcDNA3.1 (+) mammalian expression vector (V90-20, Invitrogen, Carlsbad, Calif.) and the plasmid was transfected into Chinese hamster ovary (CHO) cells. Lysate was prepared using M-PER (Mammalian Protein Extraction Reagent, ThermoFisher Scientific, Grand Island, N.Y.) in the presence of a protease inhibitor cocktail (P8340, Sigma, Saint Louis, Mo.). Each 100 mm dish (100% confluent, approximately 1×10^7 cells) was lysed with 250 μL of M-PER containing protease inhibitors. Protein concentration was determined using a Pierce BCA protein assay kit (ThermoFisher Scientific). Four micrograms of CHO/CGT lysate was incubated with various concentrations of a compound (0.001 μM-50 μM) in 10 mM HEPES (pH 7.2) containing 35 μM dioleoylphosphatidylcholine, 5 mM MgCl2, 5 mM MnCl2, 1% BSA, 15 mM KCl, 1 mM EGTA, 8 mM CHAPS, 10 μM C6-NBD-dihydro-ceramide and 17.5 μM UDP-galactose in a final reaction volume of 20 μL at 37° C. for 1 hour. The final concentration of DMSO was 0.5% in both compound-treated and mock-treated samples. Tween 80 (0.01%) was optionally added to the reaction mixture to help solubilize the compounds. Each individual reaction was diluted with 80 μL of methanol:acetronitrile (1:3) containing 5 μM N-docdecanoyl-NBD-galactosylceramide (internal standard) to stop the reaction. 200 μL H2O:acetonitile (1:1) was added to precipitate the protein. After sufficient mixing, the plates were centrifuged at 2469 g for 38 minutes, 200 μL of supernatant was transferred to a LC/MS 96-deep well plate and a second spin was performed at 2469 g for 10 minutes. The final supernatant was injected in triplicate for RapidFire/MS/MS analysis.
Quantitative Analysis Using the RapidFire/MS/MS Method:
The quantitative analysis of C6-NBD-dihydro-ceramide and C6-NBD-dihydro-galactosylceramide was performed on a Rapid Fire 360 high-throughput mass spectrometry system (Agilent Technologies, Palo Alto, Calif.) coupled with a API4000^+ triple quadrupole mass spectrometer (Applied Biosystems, Concord, Ontario, Canada). RapidFire software packages, including RapidFire Control panel, RapidFire UI and RapidFire Integrator (Agilent Technologies), were used to control the RapidFire instrument and to process data. Analyst 1.6.2 software packages (Applied Biosystems) were used to control the MS system and acquire MS data. […] of sample was loaded on a micro-scale C4 solid-phase extraction (SPE) cartridge (Agilent Technologies) and salts were removed using water supplemented with 0.1% formic acid at the flow rate of 1.5 mL/min for 3 sec. C6-NBD-dihydro-ceramide and C6-NBD-dihydro-galactosylceramide were co-eluted into the mass spectrometer using acetonitrile containing 0.1% formic acid at the flow rate of 1.0 mL/min for 3 sec. The total cycle time of one injection was 8 secs. The MS/MS detection was performed in ESI negative mode. The mass transition of C6-NBD-dihydro-galactosylceramide was m/z 752.6→678.6 using a −40 V collision energy, the mass transition of C6-NBD-dihydro-ceramide was m/z 590.6→115.8 using a −40 V collision energy and the mass transition of N-docdecanoyl-NBD-galactosylceramide was m/z 820.9→746.3 using a −45 V collision energy.
The C6-NBD-dihydro-galactosylceramide reading was normalized first by dividing the peak area of C6-NBD-dihydro-galactosylceramide by the peak area of the internal standard, N-docdecanoyl-NBD-galactosylceramide. IC50 values (see Table 1, where data ranges with one asterix (*) correspond to analysis using the RapidFire/MS/MS method, and data ranges with two asterixes (**) correspond to analysis using the RapidFire/MS/MS method with 0.01% Tween added) were generated from sigmoidal dose-response curves (variable slope) with GraphPad Prism software (GraphPad Software, Inc., San Diego, Calif.) using the normalized peak areas of C6-NBD-dihydro-galactosylceramide or the percent inhibition of C6-NBD-dihydro-galactosylceramide accumulation relative to DMSO control. […]

`CCCCOc1ccc(C(F)(F)[C@@H](C(=O)N2C3CCC2CC(N)C3)N(C)S(=O)(=O)c2ccc(OCC3CCCCC3)cc2)cc1` (stereo partly drawn) [Compound 79-1, N-((2R)-3-(3-amino-8-azabicyclo[3.2.1]octan-8-yl)-1-(4-butoxyphenyl)-1,1-difluoro-3-oxopropan-2-yl)-4-(cyclohexylmethoxy)-N-methylbenzenesulfonamide] and `NC1CC2CCC(C1)N2C(=O)[C@H](NS(=O)(=O)c1ccc(OCC2CCCCC2)cc1)C(F)(F)c1ccc(Cl)cc1` (stereo partly drawn) [Compound 29-2, N-((2S)-3-(3-amino-8-azabicyclo[3.2.1]octan-8-yl)-1-(4-chlorophenyl)-1,1-difluoro-3-oxopropan-2-yl)-4-(cyclohexylmethoxy) benzenesulfonamide trifluoroacetate] fall in the same range of IC50: 1 to 10 µM for the first, 1 to 10 µM for the second.

`NC1CC2CCC(C1)N2C(=O)[C@H](NS(=O)(=O)c1ccc(OCC2CCCCC2)cc1)C(F)(F)c1cccc(Oc2ccccc2)c1` (stereo partly drawn) [Compound 113-2, N-((2S)-3-(3-amino-8-azabicyclo[3.2.1]octan-8-yl)-1,1-difluoro-3-oxo-1-(3-phenoxyphenyl)propan-2-yl)-4-(cyclohexylmethoxy) benzenesulfonamide trifluoroacetate] and `NC1CC2CCC(C1)N2C(=O)[C@@H](NS(=O)(=O)c1ccc(OCC2CCCCC2)cc1)C(F)(F)c1ccc(Oc2ccccc2)cc1` (stereo partly drawn) [Compound 84-1, N-((2R)-3-(3-amino-8-azabicyclo[3.2.1]octan-8-yl)-1,1-difluoro-3-oxo-1-(4-phenoxyphenyl)propan-2-yl)-4-(cyclohexylmethoxy)benzenesulfonamide] fall in the same range of IC50: 1 to 10 µM for the first, 1 to 10 µM for the second.

First: N[C@@H]1CCCN(C(=O)[C@@H](NS(=O)(=O)c2ccc3cc(OC4CCCC4)ccc3c2)C(F)(F)c2ccc(Br)cc2)C1 [Compound 122-1, N—((R)-3-((R)-3-aminopiperidin-1-yl)-1-(4-bromophenyl)-1,1-difluoro-3-oxopropan-2-yl)-6-(cyclopentyloxy)naphthalene-2-sulfonamide]
Second: NCC1CCN(C(=O)[C@@H](NS(=O)(=O)c2ccc3cc(OC4CCCC4)ccc3c2)C(F)(F)c2ccc(-c3ccc(Cl)cc3)cc2)CC1 [Compound 138-1, (R)—N-(3-(4-(aminomethyl)piperidin-1-yl)-1-(4′-chloro-[1,1′-biphenyl]-4-yl)-1,1-difluoro-3-oxopropan-2-yl)-6-(cyclopentyloxy)naphthalene-2-sulfonamide trifluoroacetate]
The IC50 of the first is higher: 1 to 10 µM for the first, < 1 µM for the second. The second is the more potent here.

First: NC1CC2CCC(C1)N2C(=O)[C@@H](NS(=O)(=O)c1ccc2cc(OC3CCCC3)ccc2c1)C(F)(F)c1ccc(Oc2ccc(Cl)cc2)cc1 (stereo partly drawn) [Compound 121-1, N-((2R)-3-(3-amino-8-azabicyclo[3.2.1]octan-8-yl)-1-(4-(4-chlorophenoxy)phenyl)-1,1-difluoro-3-oxopropan-2-yl)-6-(cyclopentyloxy) naphthalene-2-sulfonamide]
Second: CCN([C@@H](C(=O)N1C2CCC1CC(N)C2)C(F)(F)c1ccc(Br)cc1)S(=O)(=O)c1ccc2cc(OC3CCCC3)ccc2c1 (stereo partly drawn) [Compound 68-2, N-((2S)-3-(3-amino-8-azabicyclo[3.2.1]octan-8-yl)-1-(4-bromophenyl)-1,1-difluoro-3-oxopropan-2-yl)-6-(cyclopentyloxy)-N-ethylnaphthalene-2-sulfonamide]
The IC50 of the first is lower: < 1 µM for the first, 30 to 100 µM for the second. The first is the more potent here.

`NC1CCN(C(=O)[C@@H](NS(=O)(=O)c2ccc(OCC3CCCCC3)cc2)C(F)(F)c2ccc(OC3CCCCC3)cc2)CC1` [Compound 103-1, (R)—N-(3-(4-aminopiperidin-1-yl)-1-(4-(cyclohexyloxy)phenyl)-1,1-difluoro-3-oxopropan-2-yl)-4-(cyclohexylmethoxy)benzenesulfonamide] and `CN([C@H](C(=O)N1CCC(N)CC1)C(F)(F)c1ccc(Cl)cc1)S(=O)(=O)c1ccc2cc(OC3CCCC3)ccc2c1` [Compound 100-1, (R)—N-(3-(4-aminopiperidin-1-yl)-1-(4-chlorophenyl)-1,1-difluoro-3-oxopropan-2-yl)-6-(cyclopentyloxy)-N-methylnaphthalene-2-sulfonamide] cannot be ordered by IC50: < 1 µM for the first, < 1 µM for the second.
